According to PubChem BioAssay AID1259407 (Chemical Carcinogenesis Research Information System (CCRIS), 2018):
Calls of active or inactive are those of the source. No rule for the calls is given here.

System: CCRIS mutagenicity, Ames/micronucleus/aberration tests
Test: CCRIS mutagenicity studies
[1] = Test System: AMES SALMONELLA TYPHIMURIUM, Strain/Indicator: TA98, Metabolic Activation: NONE, Method: PREINCUBATION
[2] = Test System: AMES SALMONELLA TYPHIMURIUM, Strain/Indicator: TA100, Metabolic Activation: NONE, Method: PREINCUBATION
[3] = Test System: AMES SALMONELLA TYPHIMURIUM, Strain/Indicator: TA1537, Metabolic Activation: NONE, Method: PREINCUBATION
[4] = Test System: AMES SALMONELLA TYPHIMURIUM, Strain/Indicator: TA1538, Metabolic Activation: RAT, LIVER, S-9, AROCLOR 1254, Method: STANDARD PLATE
[5] = Test System: AMES SALMONELLA TYPHIMURIUM, Strain/Indicator: TA98, Metabolic Activation: RAT, LIVER, S-9, AROCLOR 1254, Method: STANDARD PLATE
[6] = Test System: AMES SALMONELLA TYPHIMURIUM, Strain/Indicator: TA100, Metabolic Activation: NONE, Method: STANDARD PLATE
[7] = Test System: AMES SALMONELLA TYPHIMURIUM, Strain/Indicator: TA100, Metabolic Activation: RAT, LIVER, S-9, AROCLOR 1254, Method: STANDARD PLATE
[8] = Test System: AMES SALMONELLA TYPHIMURIUM, Strain/Indicator: TA98, Metabolic Activation: NONE, Method: STANDARD PLATE

Q: What does the source list for `Cc1cc(-c2ccc(N/N=C3\C(=O)c4c(O)cc(S(=O)(=O)O)cc4C=C3S(=O)(=O)O)c(C)c2)ccc1N/N=C1\C(=O)c2c(O)cc(S(=O)(=O)O)cc2C=C1S(=O)(=O)O`?
A: mutagenic call (Test System: AMES SALMONELLA TYPHIMURIUM, Strain/Indicator: TA98, Metabolic Activation: HAMSTER, LIVER, S-9, AROCLOR 1254 (10%), Method: PREINCUBATION): inactive; negative; mutagenic call [1]: inactive; negative; mutagenic call (Test System: AMES SALMONELLA TYPHIMURIUM, Strain/Indicator: TA98, Metabolic Activation: RAT, LIVER, S-9, AROCLOR 1254 (10%), Method: PREINCUBATION): inactive; negative; mutagenic call (Test System: AMES SALMONELLA TYPHIMURIUM, Strain/Indicator: TA100, Metabolic Activation: HAMSTER, LIVER, S-9, AROCLOR 1254 (10%), Method: PREINCUBATION): inactive; negative; mutagenic call [2]: inactive; negative; mutagenic call (Test System: AMES SALMONELLA TYPHIMURIUM, Strain/Indicator: TA100, Metabolic Activation: RAT, LIVER, S-9, AROCLOR 1254 (10%), Method: PREINCUBATION): inactive; negative; mutagenic call (Test System: AMES SALMONELLA TYPHIMURIUM, Strain/Indicator: TA1535, Metabolic Activation: HAMSTER, LIVER, S-9, AROCLOR 1254 (10%), Method: PREINCUBATION): inactive; negative; mutagenic call (Test System: AMES SALMONELLA TYPHIMURIUM, Strain/Indicator: TA1535, Metabolic Activation: NONE, Method: PREINCUBATION): inactive; negative; mutagenic call (Test System: AMES SALMONELLA TYPHIMURIUM, Strain/Indicator: TA1535, Metabolic Activation: RAT, LIVER, S-9, AROCLOR 1254 (10%), Method: PREINCUBATION): inactive; negative; mutagenic call (Test System: AMES SALMONELLA TYPHIMURIUM, Strain/Indicator: TA1537, Metabolic Activation: HAMSTER, LIVER, S-9, AROCLOR 1254 (10%), Method: PREINCUBATION): inactive; negative; mutagenic call [3]: inactive; negative; mutagenic call (Test System: AMES SALMONELLA TYPHIMURIUM, Strain/Indicator: TA1537, Metabolic Activation: RAT, LIVER, S-9, AROCLOR 1254 (10%), Method: PREINCUBATION): inactive; negative; mutagenic call [4]: inactive; negative

Q: With `CCCOc1cc(N=Nc2ccc(N(CC)CC)cc2)ccc1N=Nc1c(S(=O)(=O)O)cc2ccc(N)cc2c1O` as the compound, how does the mutagenic call [5] read?
A: active; positive

Q: What about the mutagenic call [6] of the same compound?
A: inactive; negative

Q: What about the mutagenic call [7] of the same compound?
A: inactive; negative

Q: What about the mutagenic call (Test System: AMES SALMONELLA TYPHIMURIUM, Strain/Indicator: TA1538, Metabolic Activation: NONE, Method: STANDARD PLATE) of the same compound?
A: inactive; negative

Q: What about the mutagenic call [4] of the same compound?
A: active; positive

Q: `O.O.O.O.O.[Cd+2].[Cd+2].[Cl-].[Cl-].[Cl-].[Cl-]` was tested. Which mutagenic call (End Point: In vivo micronucleus, Test System: Bone marrow polychromatic erythrocytes, Species: Mouse, Strain/Sex: C57BL/6J/Han/Male, Route: Oral) did it give?
A: inactive; negative

Q: What about the mutagenic call [1] of the same compound?
A: inactive; negative

Q: What about the mutagenic call (Test System: AMES SALMONELLA TYPHIMURIUM, Strain/Indicator: TA98, Metabolic Activation: RAT LIVER S-9, PHENOBARBITAL AND BETA-NAPHTHOFLAVONE, Method: PREINCUBATION) of the same compound?
A: inactive; negative

Q: What about the mutagenic call (Test System: AMES SALMONELLA TYPHIMURIUM, Strain/Indicator: TA100, Metabolic Activation: RAT LIVER S-9, PHENOBARBITAL AND BETA-NAPHTHOFLAVONE, Method: PREINCUBATION) of the same compound?
A: inactive; negative

Q: What about the mutagenic call (Test System: AMES SALMONELLA TYPHIMURIUM, Strain/Indicator: TA1535, Metabolic Activation: RAT LIVER S-9, PHENOBARBITAL AND BETA-NAPHTHOFLAVONE, Method: PREINCUBATION) of the same compound?
A: inactive; negative

Q: What about the mutagenic call [3] of the same compound?
A: inactive; negative

Q: And the mutagenic call (Test System: AMES SALMONELLA TYPHIMURIUM, Strain/Indicator: TA1537, Metabolic Activation: RAT LIVER S-9, PHENOBARBITAL AND BETA-NAPHTHOFLAVONE, Method: PREINCUBATION)?
A: inactive; negative

Q: What about the mutagenic call (Test System: AMES SALMONELLA TYPHIMURIUM, Strain/Indicator: TA1538, Metabolic Activation: NONE, Method: PREINCUBATION) of the same compound?
A: inactive; negative

Q: And the mutagenic call (Test System: AMES SALMONELLA TYPHIMURIUM, Strain/Indicator: TA1538, Metabolic Activation: RAT LIVER S-9, PHENOBARBITAL AND BETA-NAPHTHOFLAVONE, Method: PREINCUBATION)?
A: inactive; negative

Q: And the mutagenic call (Test System: E.COLI, Strain/Indicator: WP2UVRA, Metabolic Activation: NONE, Method: PREINCUBATION)?
A: inactive; negative

Q: What about the mutagenic call (Test System: E.COLI, Strain/Indicator: WP2UVRA, Metabolic Activation: RAT LIVER S-9, PHENOBARBITAL AND BETA-NAPHTHOFLAVONE, Method: PREINCUBATION) of the same compound?
A: inactive; negative

Q: How did the mutagenic call [1] turn out when `CN1CCN(C)CC1` was run?
A: inactive; negative

Q: What about the mutagenic call (Test System: AMES SALMONELLA TYPHIMURIUM, Strain/Indicator: TA98, Metabolic Activation: RAT, LIVER, S-9, PCB, Method: PREINCUBATION) of the same compound?
A: inactive; negative

Q: And the mutagenic call [2]?
A: inactive; negative

Q: What about the mutagenic call (Test System: AMES SALMONELLA TYPHIMURIUM, Strain/Indicator: TA100, Metabolic Activation: RAT, LIVER, S-9, PCB, Method: PREINCUBATION) of the same compound?
A: inactive; negative

Q: How did the mutagenic call [6] turn out when `c1ccc(COC[C@@H]2CO2)cc1` was run?
A: active; positive

Q: Which mutagenic call (Test System: CHINESE HAMSTER V-79, Strain/Indicator: V-79/8-AZAGUANINE, Metabolic Activation: RAT, LIVER, S-9, AROCLOR 1254, Method: STANDARD PLATE) does the source give for `Cc1ccc2cc3c(ccc4ccccc43)c3c2c1CC3O` (configuration not stated) here?
A: active; positive

Q: For `CC1(C)CC(C(=O)O)C(C)(C)N1[O]` (configuration not stated), which mutagenic call [8] is on record?
A: inactive; negative

Q: What about the mutagenic call [6] of the same compound?
A: inactive; negative

Q: And the mutagenic call (Test System: AMES SALMONELLA TYPHIMURIUM, Strain/Indicator: TA102, Metabolic Activation: NONE, Method: STANDARD PLATE)?
A: inactive; negative

Q: What about the mutagenic call (Test System: AMES SALMONELLA TYPHIMURIUM, Strain/Indicator: TA102, Metabolic Activation: XANTHINE OXIDASE, Method: STANDARD PLATE) of the same compound?
A: inactive; negative

Q: What about the mutagenic call (Test System: AMES SALMONELLA TYPHIMURIUM, Strain/Indicator: TA104, Metabolic Activation: NONE, Method: STANDARD PLATE) of the same compound?
A: inactive; negative

Q: And the mutagenic call (Test System: AMES SALMONELLA TYPHIMURIUM, Strain/Indicator: TA104, Metabolic Activation: XANTHINE OXIDASE, Method: STANDARD PLATE)?
A: inactive; negative

Q: For `C=C(Br)C(C)=O`, which mutagenic call [6] is on record?
A: active; positive

Q: With `C=CC(=O)N(CC1CO1)CC1CO1` (configuration not stated) as the compound, how does the mutagenic call [1] read?
A: active; positive

Q: What about the mutagenic call [8] of the same compound?
A: active; positive

Q: And the mutagenic call (Test System: AMES SALMONELLA TYPHIMURIUM, Strain/Indicator: TA98, Metabolic Activation: RAT, LIVER, S-9, AROCLOR 1254, Method: PREINCUBATION)?
A: inactive; negative

Q: And the mutagenic call [5]?
A: active; positive

Q: And the mutagenic call [2]?
A: active; positive

Q: And the mutagenic call [6]?
A: active; positive

Q: What about the mutagenic call (Test System: AMES SALMONELLA TYPHIMURIUM, Strain/Indicator: TA100, Metabolic Activation: RAT, LIVER, S-9, AROCLOR 1254, Method: PREINCUBATION) of the same compound?
A: active; positive

Q: What about the mutagenic call [7] of the same compound?
A: active; positive

Q: Which mutagenic call (Test System: AMES SALMONELLA TYPHIMURIUM, Strain/Indicator: TA98(1,8-DNP6), Metabolic Activation: NONE, Method: STANDARD PLATE) does the source give for `O=C(O)c1ccc([N+](=O)[O-])o1` here?
A: inactive; negative

Q: And the mutagenic call (Test System: AMES SALMONELLA TYPHIMURIUM, Strain/Indicator: TA98(1,8-DNP6), Metabolic Activation: RAT, LIVER, S-9, 3-METHYLCHOLANTHRENE, Method: STANDARD PLATE)?
A: inactive; negative

Q: What about the mutagenic call (Test System: AMES SALMONELLA TYPHIMURIUM, Strain/Indicator: TA98(NR), Metabolic Activation: NONE, Method: STANDARD PLATE) of the same compound?
A: inactive; negative

Q: And the mutagenic call (Test System: AMES SALMONELLA TYPHIMURIUM, Strain/Indicator: TA98(NR), Metabolic Activation: RAT, LIVER, S-9, 3-METHYLCHOLANTHRENE, Method: STANDARD PLATE)?
A: inactive; negative

Q: What about the mutagenic call [8] of the same compound?
A: inactive; negative

Q: What about the mutagenic call (Test System: AMES SALMONELLA TYPHIMURIUM, Strain/Indicator: TA98, Metabolic Activation: RAT, LIVER, S-9, 3-METHYLCHOLANTHRENE, Method: STANDARD PLATE) of the same compound?
A: inactive; negative

Q: And the mutagenic call [6]?
A: active; positive

Q: With `O[C@@H]1C=Cc2c(cc3ccc4cccc5ccc2c3c45)[C@@H]1O` as the compound, how does the mutagenic call [5] read?
A: active; positive

Q: `C1=Cc2ccc3nc4ccc5ccccc5c4cc3c2CC1` was tested. Which mutagenic call (Test System: AMES SALMONELLA TYPHIMURIUM, Strain/Indicator: TA98, Metabolic Activation: GUINEA PIG, LIVER, S-9, 3-METHYLCHOLANTHRENE, Method: STANDARD PLATE) did it give?
A: active; positive

Q: What about the mutagenic call (Test System: AMES SALMONELLA TYPHIMURIUM, Strain/Indicator: TA100, Metabolic Activation: GUINEA PIG, LIVER, S-9, 3-METHYLCHOLANTHRENE, Method: STANDARD PLATE) of the same compound?
A: active; positive

Q: Which results are given for `Nc1ccc(Sc2ccc([N+](=O)[O-])cc2)cc1`?
A: mutagenic call [8]: active; positive; mutagenic call [5]: active; positive
